EC50 data for twelve compounds are collected here from patent publication US20090118263A1, “Novel Adenine Compound” (priority 2005, published 2009).

In this assay the target is T1, human TLR7 (Homo sapiens, UniProt Q9NYK1).
T1 construct: expressed in transfected cells; host or cells: HEK293 (hTLR7/seap-293), stably transfected with the TLR7 plasmid and the NF-kB-SEAP reporter plasmid
T1 sequence (Q9NYK1 27-1049): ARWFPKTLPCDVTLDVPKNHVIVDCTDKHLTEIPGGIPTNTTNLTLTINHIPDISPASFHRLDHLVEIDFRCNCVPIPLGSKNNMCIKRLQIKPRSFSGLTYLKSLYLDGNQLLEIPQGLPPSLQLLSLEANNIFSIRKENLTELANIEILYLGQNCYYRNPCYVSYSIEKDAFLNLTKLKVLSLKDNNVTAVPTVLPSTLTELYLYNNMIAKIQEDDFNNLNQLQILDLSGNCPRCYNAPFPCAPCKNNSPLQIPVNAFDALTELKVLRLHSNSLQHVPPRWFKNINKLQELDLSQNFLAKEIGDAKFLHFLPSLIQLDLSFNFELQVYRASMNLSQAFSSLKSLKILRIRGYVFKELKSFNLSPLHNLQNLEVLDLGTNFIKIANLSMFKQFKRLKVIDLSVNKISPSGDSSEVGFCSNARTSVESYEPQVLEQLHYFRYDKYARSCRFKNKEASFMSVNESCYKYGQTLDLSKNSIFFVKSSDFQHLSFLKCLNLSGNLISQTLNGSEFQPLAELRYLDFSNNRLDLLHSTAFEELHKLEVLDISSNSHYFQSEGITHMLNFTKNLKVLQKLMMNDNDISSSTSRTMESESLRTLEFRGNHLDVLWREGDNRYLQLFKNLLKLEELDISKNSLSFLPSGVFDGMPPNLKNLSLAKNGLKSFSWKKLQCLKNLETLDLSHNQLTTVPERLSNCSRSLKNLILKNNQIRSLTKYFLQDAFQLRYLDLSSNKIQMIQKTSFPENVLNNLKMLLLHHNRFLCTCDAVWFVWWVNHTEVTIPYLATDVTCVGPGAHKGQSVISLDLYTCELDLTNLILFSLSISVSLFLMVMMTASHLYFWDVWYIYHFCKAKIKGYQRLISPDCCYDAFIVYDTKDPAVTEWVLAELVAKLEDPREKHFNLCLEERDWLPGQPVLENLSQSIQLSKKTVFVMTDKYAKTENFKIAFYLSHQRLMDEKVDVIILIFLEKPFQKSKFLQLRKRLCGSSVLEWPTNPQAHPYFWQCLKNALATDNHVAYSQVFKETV
The assay can be described thus: Human TLR7 reporter assay (NF-kB-SEAP in HEK293 cells). The note with it: HEK293 cells stably carrying human TLR7 plasmid and NF-kB-SEAP reporter plasmid; 20 hours culture; 1 nM-10 μM; absorbance 405 nm; read-out: Human TLR7 binding activity (EC50). It is filed as cell-based. Here is the method:
Human TLR7 Reporter Assay
HEK293 cells in which human TLR7 or rat TLR7 plasmid and reporter plasmid (NF-kB-SEAP) are stably introduced are dispersed in DMEM broth (10% FBS, 1% NEAA, 10 ug/mL blastocidin S HCl, 100 ug/mL Zeocin), and were seeded to 96 well plate per 90 μl/well (hTLR7/seap-293:20000 cells/well, rTLR7/seap-293:25000 cells/well).
Test compound (DMSO stock solution (2 μl) was diluted with the broth (200 μl) by 100 times) was added to the seeded cells to a 96 well plate (10 μl/well) (final concentration; 1 nM-10 μM, common ratio). After stirring by tapping side of the plate, the cells were cultured in a CO2 incubator for 20 hours. A substrate (50 μl/well) for reporter assay (substrate for SEAP, pNPP) was added to cells stimulated by test sample. Ten minutes after adding the substrate, the reaction quenching solution (4N NaOH) was added by 50 μl/well to cease enzymatic reaction. Sealing a top seal A on the plate, the absorbance was measured by a micro plate reader (405 nm).
For `CCCCOc1nc(N)c2[nH]c(=O)n(Cc3ccc(OCCCCN(CCCN4CCOCC4)Cc4cccc(CC(=O)OC)c4)nc3)c2n1` [Example 17, 2-Butoxy-7,8-dihydro-9-(6-[4-{[N-(3-methoxycarbonylmethylbenzyl)-N-(3-morpholinopropyl)]amino}butoxy]pyridin-3-ylmethyl)-8-oxoadenine], the EC50 (commonly the concentration giving half of the maximal effect) was 0.0207 µM.

On to `CCCCOc1nc(N)c2[nH]c(=O)n(Cc3ccc(CN(CCCO)Cc4cccc(CC(=O)OC)c4)cc3)c2n1` [Example 5, 2-Butoxy-7,8-dihydro-9-(4-{N-(3-hydroxypropyl)-N-[3-(methoxycarbonylmethyl)benzyl]aminomethyl}benzyl)-8-oxoadenine], for which the 50% effective concentration (EC50) is 0.0408 µM.

As for `CCCCOc1nc(N)c2[nH]c(=O)n(Cc3ccc(CN(C)CCOc4cccc(CC(=O)OC)c4)cc3)c2n1` [Example 9, 2-Butoxy-7,8-dihydro-9-[4-(N-{2-[3-(methoxycarbonylmethyl)phenoxy]ethyl}-N-methylaminomethyl)benzyl]-8-oxoadenine], the EC50 is 0.0283 µM.

Take `CCCCOc1nc(N)c2[nH]c(=O)n(Cc3ccc(CN(CCCN4CCOCC4)Cc4cccc(CC(=O)OC)c4)cc3)c2n1` [Example 7, 2-Butoxy-7,8-dihydro-9-(4-{N-[3-(methoxycarbonylmethyl)benzyl]-N-(3-morpholin-4-ylpropyl)aminomethyl}benzyl)-8-oxoadenine]: the EC50 is 0.0241 µM.

In the case of `CCCCOc1nc(N)c2[nH]c(=O)n(Cc3ccc(OCCCCN(C)Cc4cccc(CC(=O)O)c4)nc3)c2n1` [Example 16, 2-Butoxy-7,8-dihydro-9-[6-(4-[{N-[3-(carboxymethyl)benzyl]-N-methyl}amino]butoxy)pyridin-3-ylmethyl]-8-oxoadenine], the EC50 stood at 0.0296 µM.

On to `CCCCOc1nc(N)c2[nH]c(=O)n(Cc3ccc(OCCCCNCc4cccc(CC(=O)OC)c4)nc3)c2n1` [Example 12, 2-Butoxy-7,8-dihydro-9-{6-[4-(3-methoxycarbonylmethylbenzyl)aminobutoxy]pyridin-3-ylmethyl}-8-oxoadenine], for which the EC50 turned out to be 0.0091 µM.

Take `COCCOc1nc(N)c2[nH]c(=O)n(Cc3ccc(CN(C)CCOc4cccc(CC(=O)OC)c4)cc3)c2n1` [Example 19, 7,8-Dihydro-9-[4-{N-[2-(3-methoxycarbonylmethylphenyl-1-yl)oxyethyl]-N-methylamino}methylbenzyl]-2-(2-methoxyethoxy)-8-oxoadenine]: the concentration for a half-maximal effect (EC50) is 0.0515 µM.

Regarding `CCCCOc1nc(N)c2[nH]c(=O)n(Cc3ccc(CN(C)CCOc4cc(CC(=O)OC)ccc4OC)cc3)c2n1` [Example 11, 2-Butoxy-7,8-dihydro-9-[4-(N-{2-[2-methoxy-5-(methoxycarbonylmethyl)phenoxy]ethyl}-N-methylaminomethyl)benzyl]-8-oxoadenine], the concentration giving a half-maximal response (EC50) was determined as 0.021 µM.

For the compound `CCCCOc1nc(N)c2[nH]c(=O)n(Cc3ccc(OCCCNCc4cccc(CC(=O)OC)c4)cc3)c2n1` [Example 3, 2-Butoxy-7,8-dihydro-9-([3-{N-[3-(methoxycarbonylmethyl)benzyl]amino}propoxy]benzyl)-8-oxoadenine], the EC50 was 0.0204 µM.

Turning to `CCCCOc1nc(N)c2[nH]c(=O)n(Cc3ccc(OCCCCN(C)Cc4cccc(CC(=O)OC)c4)nc3)c2n1` [Example 15, 2-Butoxy-7,8-dihydro-9-[6-(4-[{N-methyl-N-[3-(methoxycarbonylmethyl)benzyl]}amino]butoxy)pyridin-3-ylmethyl]-8-oxoadenine], the EC50 is 0.0094 µM.

With `CCCCOc1nc(N)c2[nH]c(=O)n(Cc3ccc(OCCCN(C)Cc4cccc(CC(=O)OC)c4)cc3)c2n1` [Example 1, 2-Butoxy-7,8-dihydro-9-[(3-[{N-methyl-N-[3-(methoxycarbonylmethyl)benzyl]}amino]propoxy)benzyl]-8-oxoadenine], the concentration giving a half-maximal response (EC50) was 0.026 µM.

In the case of `CCCCOc1nc(N)c2[nH]c(=O)n(Cc3ccc(CN(CCCN4CCOCC4)Cc4cccc(CC(=O)O)c4)cc3)c2n1` [Example 8, 2-Butoxy-7,8-dihydro-9-(4-{N-[3-(hydroxycarbonylmethyl)benzyl]-N-(3-morpholin-4-ylpropyl)aminomethyl}benzyl)-8-oxoadenine], the EC50 worked out at 0.253 µM.
